Laboratory results taken from patent US8951507B2, “Formulation with irritation reducing action comprising bisabolol and [6]-paradol” (Symrise AG, priority 2009, dated 2015).
Entries after “also recorded” stand apart in the source; their conditions may differ. Like-named read-outs stand apart in the source and are kept apart here.

Legend:
[1] = literature reports; cited from earlier work
[2] = tested on: PGE2 release of human skin cells (keratinocytes); test: Anti-Prostaglandin E2 (PGE2) assay, A23187-induced PGE2 release, ELISA; assay type: cell-based; details: for Maximum PGE2 inhibition: at optimum concentration, versus A23187-stimulated control; for Optimum: concentration giving maximum PGE2 inhibition; for IC50: primary human epidermal keratinocytes, 2 μM A23187 calcium ionophore, at least two independent experiments, read-out: IC50 (50% of PGE2 release is inhibited)
Experimental: PGE2 is an important inflammatory mediator in the skin. Thus, the inhibiting effect of [6]-paradol and related compounds on (A23187-induced) PGE2 release of human skin cells (keratinocytes) is investigated.
Primary human epidermal keratinocytes are seeded into a 96 well microplate and are cultured in KGM medium to 60-80% confluency. Afterwards, the KGM medium is substituted by KGM medium depleted of hydrocortisone but containing the test compounds (test compound solutions are applied in medium in three different concentrations, each as a triple determination in three different wells, e.g. for [6]-paradol: in experiment 1 the following concentrations were used: 20 μM, 2 μM and 0.2 μM, in experiment 2 the following concentrations were used: 10 μM, 1 μM and 0.1 μM and in experiment 3 the following concentrations were used: 2.5 μM, 0.25 μM and 0.025 μM.
The cells are incubated for 30 minutes. Then, PGE2 release is stimulated by addition of 2 μM A23187 calcium ionophore. After further 30 min incubation, the PGE2 content of the supernatant is quantified in an ELISA (PGE2 Enzyme Immunoassay System from GE Healthcare).
The results set out above were obtained from at least two independent experiments. PGE2 inhibition was calculated in comparison to the calcium ionophore A23187-induced stimulated control (without addition of test compounds).

[3] = Stability in cosmetic compositions or products at varying pH (own experiments); assay type: physicochemical; details: basic, neutral or acidic cosmetic compositions or products
Description: Furthermore, in contrast to gingerols and shogaols, in particular to gingerols, which are labile and prone to degradation (J. Pharm. Sci. 2001, 1658-1664), thus showing insufficient stability, according to own experiments [6]-paradol is very stable in cosmetic compositions or products, even at varying pH-values, i.e. in basic, neutral or acidic cosmetic compositions or products.
The synergistic combinations of bisabolol and [6]-paradol, i.e. the formulations according to the present invention, are preferably colourless, are advantageously of low odour and show good stability even at pH values […], which is of particular interest for several cosmetic products such as sunscreen formulations, soaps, deo sticks, alkaline hair colourations and oral care formulations like tooth pastes. The synergistic combinations of bisabolol and [6]-paradol are advantageously stable over a wide range of pH-values, generally in cosmetic compositions or products having a pH-value in the range of 4 to 10, in particular in cosmetic compositions or products having a pH-value in the range of 5 to 9.

IC50 [2] | Stability in cosmetic compositions or products [3] | IC50 ([2]; Keratinocyte) | SMILES | Mutagenicity [1] | Maximum PGE2 inhibition [2] | Optimum [2] | PGE2 inhibitory activity compared with the other tested compounds ([2]; among [6]-paradol, [6]-gingerol, [8]-gingerol and [8]-paradol)
3.47 ± 4.08 µM | – | – | CCCCC[C@H](O)CC(=O)CCc1ccc(O)c(OC)c1 [[6]-Gingerol] | potent mutagen | ~30% | 5 µM | –
– | very stable | 0.13 µM | CCCCCCCC(=O)CCc1ccc(O)c(OC)c1 [[6]-Paradol, 1-(4-hydroxy-3-methoxyphenyl)-decan-3-one] | not mutagenic | 90-100% | 5 µM | most active; also recorded: highest activity
1.48 ± 1.21 µM | – | – | CCCCCCCCCC(=O)CCc1ccc(O)c(OC)c1 [[8]-Paradol] | – | 80-100% | 10 µM | –
1.42 ± 0.67 µM | – | – | CCCCCCC[C@H](O)CC(=O)CCc1ccc(O)c(OC)c1 [[8]-Gingerol] | – | ~70% | 20 µM | –
